# Starred links: 1 amine or outer side, 2 acyl side, 3 side chain; linkers in the order of their positions; H or OH if unused. Groups on a side chain read outwards from the residue. No end group written: not given here. *: point of attachment. C18 diacid = O=C(O)CCCCCCCCCCCCCCCCC(=O)*; γGlu = O=C(O)[C@H](CCC(=O)[*:2])N[*:1]; AEEA = NCCOCCOCC(=O)O
# T1: human Y5 receptor (Homo sapiens, UniProt Q15761)
# T1 construct: expressed in transfected cells
# T1 sequence (Q15761 1-445): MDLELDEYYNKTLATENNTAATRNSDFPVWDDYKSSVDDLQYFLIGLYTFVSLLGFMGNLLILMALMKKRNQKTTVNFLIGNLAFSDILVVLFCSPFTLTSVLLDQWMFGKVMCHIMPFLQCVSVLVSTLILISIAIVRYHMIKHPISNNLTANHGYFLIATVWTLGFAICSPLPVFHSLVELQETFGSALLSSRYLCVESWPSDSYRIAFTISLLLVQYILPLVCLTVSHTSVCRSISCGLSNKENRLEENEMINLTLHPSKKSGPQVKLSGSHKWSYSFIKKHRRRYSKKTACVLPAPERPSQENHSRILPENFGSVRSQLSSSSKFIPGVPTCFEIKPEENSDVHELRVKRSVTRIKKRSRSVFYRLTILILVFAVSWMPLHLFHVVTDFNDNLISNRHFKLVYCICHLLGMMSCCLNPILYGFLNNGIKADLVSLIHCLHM
# T2: Y1 receptor (Homo sapiens, UniProt P25929)
# T2 construct: expressed in transfected cells; host or cells: ACTOne HEK-293 cells
# T2 sequence (P25929 1-384): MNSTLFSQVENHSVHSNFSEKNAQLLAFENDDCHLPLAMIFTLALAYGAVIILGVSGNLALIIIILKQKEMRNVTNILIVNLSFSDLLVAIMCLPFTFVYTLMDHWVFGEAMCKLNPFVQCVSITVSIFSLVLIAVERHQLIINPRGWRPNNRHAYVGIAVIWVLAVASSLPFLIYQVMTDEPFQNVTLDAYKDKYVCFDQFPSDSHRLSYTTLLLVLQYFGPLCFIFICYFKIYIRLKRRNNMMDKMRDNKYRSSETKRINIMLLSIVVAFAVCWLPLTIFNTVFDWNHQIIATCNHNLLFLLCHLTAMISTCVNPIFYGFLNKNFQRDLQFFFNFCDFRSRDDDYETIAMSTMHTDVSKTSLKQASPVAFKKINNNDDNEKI
# T3: Y1 receptor (UniProt P25929 1-384, limits assumed)
# T3 sequence (looked up): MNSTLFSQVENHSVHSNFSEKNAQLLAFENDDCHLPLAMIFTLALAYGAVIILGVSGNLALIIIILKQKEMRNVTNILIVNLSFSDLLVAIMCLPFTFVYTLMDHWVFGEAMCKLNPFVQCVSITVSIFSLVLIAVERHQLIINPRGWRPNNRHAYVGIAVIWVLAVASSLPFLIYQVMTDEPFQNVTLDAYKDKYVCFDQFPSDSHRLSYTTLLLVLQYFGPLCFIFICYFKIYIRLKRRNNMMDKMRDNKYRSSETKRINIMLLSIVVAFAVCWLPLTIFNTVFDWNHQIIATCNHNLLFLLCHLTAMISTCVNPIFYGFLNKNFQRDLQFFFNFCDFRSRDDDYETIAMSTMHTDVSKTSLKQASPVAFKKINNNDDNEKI
# T4: Y2 receptor (UniProt P49146 1-381, limits assumed)
# T4 sequence (looked up): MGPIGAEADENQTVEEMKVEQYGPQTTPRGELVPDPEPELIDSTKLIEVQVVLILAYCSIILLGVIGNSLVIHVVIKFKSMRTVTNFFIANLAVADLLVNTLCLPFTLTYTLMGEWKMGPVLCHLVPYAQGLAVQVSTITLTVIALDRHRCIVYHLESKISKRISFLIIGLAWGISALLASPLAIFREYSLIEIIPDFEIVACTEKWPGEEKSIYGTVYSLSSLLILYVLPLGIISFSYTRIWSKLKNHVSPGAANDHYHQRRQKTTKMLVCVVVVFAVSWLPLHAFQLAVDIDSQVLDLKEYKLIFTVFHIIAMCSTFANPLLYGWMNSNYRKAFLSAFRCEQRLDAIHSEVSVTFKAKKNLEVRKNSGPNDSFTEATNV
# T5: human Y5 receptor (human, UniProt Q15761 1-445)
# T5 sequence (looked up): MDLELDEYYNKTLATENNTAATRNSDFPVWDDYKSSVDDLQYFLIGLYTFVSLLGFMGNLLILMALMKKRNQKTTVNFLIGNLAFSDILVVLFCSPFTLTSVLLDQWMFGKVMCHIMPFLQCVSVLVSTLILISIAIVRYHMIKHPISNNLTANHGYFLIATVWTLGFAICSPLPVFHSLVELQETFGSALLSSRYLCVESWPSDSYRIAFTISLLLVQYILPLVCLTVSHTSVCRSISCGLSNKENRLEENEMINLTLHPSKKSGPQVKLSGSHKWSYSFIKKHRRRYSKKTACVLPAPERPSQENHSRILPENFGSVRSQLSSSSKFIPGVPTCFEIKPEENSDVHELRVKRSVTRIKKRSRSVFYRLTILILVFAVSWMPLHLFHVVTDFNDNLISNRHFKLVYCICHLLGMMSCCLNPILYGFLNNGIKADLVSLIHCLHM
# Key:
# human Y5 receptor [1] = biological target: T1, human Y5 receptor; experiment: Assay (III) Y5 receptor IPOne potency assay; format: cell-based
# Y1 receptor [2] = biological target: T2, Y1 receptor; experiment: Assay (II) Y1 receptor ACTOne potency assay; format: cell-based
# Description: ACTOne™ is an easily scaleable cAMP biosensor HTS platform for measurement of Gs and Gi coupled 7™ receptor signalling from BD Biosciences (San Jose, Calif.). The cells express a biosensor developed around a modified rat olfactory cyclic nucleotide gated (CNG) calcium channel—a fairly non-discriminatory ion channel that responds to cAMP and cGMP. The CNG has been engineered to be cAMP selective and thus function as a cAMP responsive biosensor that signals through calcium or membrane potential responsive dyes.
# Y1 receptor [3] = biological target: T3, Y1 receptor; experiment: cell-based or functional assay
# Y2 receptor = biological target: T4, Y2 receptor; experiment: cell-based or functional assay
# human Y5 receptor [4] = biological target: T5, human Y5 receptor; experiment: cell-based or functional assay
Molecule,EC50 (human Y5 receptor [1]),Receptor potency Y5/Y2 ratio (human Y5 receptor [1]; ratio of Y5 (Assay III) to Y2 (Assay I) receptor potency),EC50 (Y1 receptor [2]),Receptor potency Y1/Y2 ratio (Y1 receptor [2]; ratio of Y1 (Assay II) to Y2 (Assay I) receptor potency),"Receptor potency Y1 (Assay (II), ACTOne) (Y1 receptor [3])","Receptor potency Y2 (Assay (I), ACTOne) (Y2 receptor)","Receptor potency Y5 (Assay (III), IPOne) (human Y5 receptor [4])"
"CC[C@H](C)[C@H](N)C(=O)N[C@@H](CCCNC(=N)N)C(=O)N1CCC[C@H]1C(=O)N[C@@H](CCC(=O)O)C(=O)N[C@@H](C)C(=O)N1CCC[C@H]1C(=O)NCC(=O)N[C@@H](CCC(=O)O)C(=O)N[C@@H](CC(=O)O)C(=O)N[C@@H](C)C(=O)N[C@@H](CO)C(=O)N1CCC[C@H]1C(=O)N[C@@H](CCC(=O)O)C(=O)N[C@@H](CCC(=O)O)C(=O)N[C@@H](CC(C)C)C(=O)N[C@@H](CCC(=O)O)C(=O)N[C@@H](CCCNC(=N)N)C(=O)N[C@@H](Cc1ccc(O)cc1)C(=O)N[C@@H](Cc1ccc(O)cc1)C(=O)N[C@@H](C)C(=O)N[C@@H](CO)C(=O)N[C@@H](CC(C)C)C(=O)N[C@@H](CCCNC(=N)N)C(=O)N[C@@H](Cc1c[nH]cn1)C(=O)N[C@@H](Cc1ccc(O)cc1)C(=O)N[C@@H](CC(C)C)C(=O)N[C@@H](CCC(N)=O)C(=O)N[C@@H](CCCCNC(=O)COCCOCCNC(=O)COCCOCCNC(=O)CC[C@H](NC(=O)CCCCCCCCCCCCCCCCC(=O)O)C(=O)O)C(=O)N[C@H](C(=O)N[C@H](C(=O)N[C@@H](CCCNC(=N)N)C(=O)N[C@@H](CCC(N)=O)C(=O)N[C@@H](CCCNC(=N)N)C(=O)N[C@@H](Cc1ccc(O)cc1)C(N)=O)[C@@H](C)O)C(C)C [SEQ ID NO: 39, N-epsilon30[2-(2-{2-[2-(2-{2-[(S)-4-Carboxy-4-(17-carboxyheptadecanoylamino)butyrylamino]ethoxy}ethoxy)acetylamino]ethoxy}ethoxy)acetyl][Arg4,Glu18,Gln29,Lys30]hPYY(3-36)]",≥ 1000 nM,>3.6,≥ 1000 nM,>3.6,–,–,–
IRPEAPGEDASPEELERYYASLRHYLQK([AEEA-AEEA-γGlu-C18 diacid])VTRQRY-NH2,–,–,–,–,≥ 1000 nM,274 nM,≥ 1000 nM
